The record followed here is the supplement of paper PMC10307832.

What all share (experiment): relative viability (nuclei count vs DMSO), 5 days (fraction); higher = more cells survive
Compound in experiment [1]: C1CN(CCN1)C2=CC=C(C=C2)C3=CN4C(=C(C=N4)C5=CC=NC6=CC=CC=C56)N=C3 [DM3189] + CC(C)C[C@H](NC(=O)[C@H](Cc1ccccc1)NC(=O)c1cnccn1)B(O)O [Bortezomib] (partner 0.002 µM)
An outline of the steps: (§1)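 Cells from lung cancer lines were seeded into 1536-well plates and, one day later, dosed by pin tool. Treatments were either a single drug or a fixed dose of an anchor drug with five library-drug doses (not always all listed) in √10 steps. After 5 days, nuclei were stained in a one-step fixation (final 0.05% Triton X-100, 1% formaldehyde, 1 ug/ml Hoechst) and counted on 4× images, and relative viability is the treated-to-vehicle nuclei ratio, as the median of duplicate plates.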

Compound in experiment [2]: C1CN(CCN1)C2=CC=C(C=C2)C3=CN4C(=C(C=N4)C5=CC=NC6=CC=CC=C56)N=C3 [DM3189] + COc1cccc2cc(-c3nc([C@H]4CC[C@H](C(=O)O)CC4)n4ncnc(N)c34)[nH]c12 [OSI-027] (partner 0.5 µM)
Summed up: as §1

Compound in experiment [3]: C1CN(CCN1)C2=CC=C(C=C2)C3=CN4C(=C(C=N4)C5=CC=NC6=CC=CC=C56)N=C3 [DM3189] + C[C@@H](Oc1cc(-c2cnn(C3CCNCC3)c2)cnc1N)c1c(Cl)ccc(F)c1Cl [Crizotinib] (partner 1 µM)
An outline of the steps:
as §1

Compound in experiment [4]: C1CN(CCN1)C2=CC=C(C=C2)C3=CN4C(=C(C=N4)C5=CC=NC6=CC=CC=C56)N=C3 [DM3189] + Nc1nc2[nH]cc(CCc3ccc(C(=O)N[C@@H](CCC(=O)O)C(=O)O)cc3)c2c(=O)[nH]1 [Pemetrexed] (partner 0.2 µM)
Summed up: as §1

Compound in experiment [5]: C1CN(CCN1)C2=CC=C(C=C2)C3=CN4C(=C(C=N4)C5=CC=NC6=CC=CC=C56)N=C3 [DM3189] + Nc1ncn([C@H]2C[C@H](O)[C@@H](CO)O2)c(=O)n1 [Decitabine] (partner 2 µM)
An outline of the steps:
as §1

Consider NCI-H3122, for which the relative viability was 0.979 in experiment [1] (first compound 0.08 µM); 0.983 in experiment [1] (first compound 0.253 µM); 0.973 in experiment [1] (first compound 0.8 µM); 0.982 in experiment [1] (first compound 2.53 µM); 1.16 in experiment [2] (first compound 0.08 µM); 0.916 in experiment [2] (first compound 0.253 µM). Further, the relative viability in experiment [2] (first compound 0.8 µM) amounted to 0.909; in experiment [2] (first compound 2.53 µM), 1.04; in experiment [3] (first compound 0.08 µM), 0.237; in experiment [3] (first compound 0.253 µM), 0.204; in experiment [3] (first compound 0.8 µM), 0.261; in experiment [3] (first compound 2.53 µM), 0.259. Besides, the relative viability in experiment [4] (first compound 0.08 µM) amounted to 0.203; in experiment [4] (first compound 0.253 µM) it was 0.197; in experiment [4] (first compound 0.8 µM), 0.184; in experiment [4] (first compound 2.53 µM), 0.159; in experiment [5] (first compound 0.08 µM), 0.362; in experiment [5] (first compound 0.253 µM) it was 0.353. Besides, the relative viability in experiment [5] (first compound 0.8 µM) was 0.372; in experiment [5] (first compound 2.53 µM), 0.367.
As to PC-3 [JPC-3], the relative viability in experiment [1] (first compound 0.08 µM) is 1; in experiment [1] (first compound 0.253 µM), 0.869; in experiment [1] (first compound 0.8 µM), 0.849; in experiment [1] (first compound 2.53 µM), 0.785; in experiment [2] (first compound 0.08 µM), 0.887; in experiment [2] (first compound 0.253 µM), 0.422. The relative viability was 0.79 in experiment [2] (first compound 0.8 µM); 0.587 in experiment [2] (first compound 2.53 µM); 1.05 in experiment [3] (first compound 0.08 µM); 1.04 in experiment [3] (first compound 0.253 µM); 1.04 in experiment [3] (first compound 0.8 µM); 1.12 in experiment [3] (first compound 2.53 µM). Also, the relative viability in experiment [4] (first compound 0.08 µM) turned out to be 1.5; in experiment [4] (first compound 0.253 µM), 1.02; in experiment [4] (first compound 0.8 µM), 1.08; in experiment [4] (first compound 2.53 µM) it was 0.856; in experiment [5] (first compound 0.08 µM), 0.848; in experiment [5] (first compound 0.253 µM) it was 0.802. The relative viability in experiment [5] (first compound 0.8 µM) and in experiment [5] (first compound 2.53 µM) was 0.797 in each case.
PC-14: the relative viability in experiment [1] (first compound 0.08 µM) worked out at 0.832; in experiment [1] (first compound 0.253 µM), 0.885; in experiment [1] (first compound 0.8 µM), 0.832; in experiment [1] (first compound 2.53 µM) it was 0.812; in experiment [2] (first compound 0.08 µM) it was 1.05; in experiment [2] (first compound 0.253 µM), 0.837. In addition, the relative viability in experiment [2] (first compound 0.8 µM) came out at 0.76; in experiment [2] (first compound 2.53 µM), 0.946; in experiment [3] (first compound 0.08 µM), 0.807; in experiment [3] (first compound 0.253 µM), 0.914; in experiment [3] (first compound 0.8 µM), 0.791; in experiment [3] (first compound 2.53 µM), 0.862. Besides, the relative viability in experiment [4] (first compound 0.08 µM) is 0.142; in experiment [4] (first compound 0.253 µM), 0.125; in experiment [4] (first compound 0.8 µM) it was 0.14; in experiment [4] (first compound 2.53 µM), 0.122; in experiment [5] (first compound 0.08 µM), 0.303; in experiment [5] (first compound 0.253 µM) it was 0.237. For the same cell line, the figures for the relative viability in experiment [5] (first compound 0.8 µM) and in experiment [5] (first compound 2.53 µM) were 0.21 and 0.253, respectively.
Regarding RERF-LC-KJ, the relative viability was 1.61 in experiment [1] (first compound 0.08 µM); 1.21 in experiment [1] (first compound 0.253 µM); 1.15 in experiment [1] (first compound 0.8 µM); 1.26 in experiment [1] (first compound 2.53 µM); 0.666 in experiment [2] (first compound 0.08 µM); 0.59 in experiment [2] (first compound 0.253 µM). Moreover, the relative viability amounted to 0.586 in experiment [2] (first compound 0.8 µM); 0.601 in experiment [2] (first compound 2.53 µM); 0.887 in experiment [3] (first compound 0.08 µM); 0.812 in experiment [3] (first compound 0.253 µM); 0.863 in experiment [3] (first compound 0.8 µM); 0.885 in experiment [3] (first compound 2.53 µM). Also, the relative viability was 0.461 in experiment [4] (first compound 0.08 µM); 0.471 in experiment [4] (first compound 0.253 µM); 0.469 in experiment [4] (first compound 0.8 µM); 0.559 in experiment [4] (first compound 2.53 µM); 0.754 in experiment [5] (first compound 0.08 µM); 0.615 in experiment [5] (first compound 0.253 µM). For the same cell line, the relative viability in experiment [5] (first compound 0.8 µM) is 0.757; in experiment [5] (first compound 2.53 µM) it was 0.618.
On to SK-LU-1, for which the relative viability in experiment [1] (first compound 0.08 µM) worked out at 1.24; in experiment [1] (first compound 0.253 µM), 0.882; in experiment [1] (first compound 0.8 µM), 0.738; in experiment [1] (first compound 2.53 µM), 0.7; in experiment [2] (first compound 0.08 µM), 0.373; in experiment [2] (first compound 0.253 µM) it was 0.283. Besides, the relative viability amounted to 0.299 in experiment [2] (first compound 0.8 µM); 0.284 in experiment [2] (first compound 2.53 µM); 0.714 in experiment [3] (first compound 0.08 µM); 0.868 in experiment [3] (first compound 0.253 µM); 0.676 in experiment [3] (first compound 0.8 µM); 0.522 in experiment [3] (first compound 2.53 µM). Moreover, the relative viability in experiment [4] (first compound 0.08 µM) was 1; in experiment [4] (first compound 0.253 µM), 0.863; in experiment [4] (first compound 0.8 µM) it was 0.857; in experiment [4] (first compound 2.53 µM), 0.549; in experiment [5] (first compound 0.08 µM) it was 0.567; in experiment [5] (first compound 0.253 µM) it was 0.585. The values for the relative viability in experiment [5] (first compound 0.8 µM) and in experiment [5] (first compound 2.53 µM) were 0.537 and 0.451, respectively.
With SW 1573, the relative viability in experiment [1] (first compound 0.08 µM) came out at 1.16; in experiment [1] (first compound 0.253 µM), 0.869; in experiment [1] (first compound 0.8 µM), 1; in experiment [1] (first compound 2.53 µM) it was 0.82; in experiment [2] (first compound 0.08 µM), 0.569; in experiment [2] (first compound 0.253 µM), 0.618. In addition, the relative viability in experiment [2] (first compound 0.8 µM) was found to be 0.488; in experiment [2] (first compound 2.53 µM), 0.523; in experiment [3] (first compound 0.08 µM), 0.87; in experiment [3] (first compound 0.253 µM) it was 0.801; in experiment [3] (first compound 0.8 µM) it was 0.717; in experiment [3] (first compound 2.53 µM), 0.767. Besides, the relative viability in experiment [4] (first compound 0.08 µM) came out at 0.948; in experiment [4] (first compound 0.253 µM), 0.791; in experiment [4] (first compound 0.8 µM), 0.706; in experiment [4] (first compound 2.53 µM), 0.638; in experiment [5] (first compound 0.08 µM), 0.616; in experiment [5] (first compound 0.253 µM), 0.381. Also, the relative viability in experiment [5] (first compound 0.8 µM) was determined as 0.46; in experiment [5] (first compound 2.53 µM) it was 0.263.
Turning to UMC-11, the relative viability in experiment [1] (first compound 0.08 µM) came out at 0.863; in experiment [1] (first compound 0.253 µM) it was 0.635; in experiment [1] (first compound 0.8 µM), 0.769; in experiment [1] (first compound 2.53 µM), 0.397; in experiment [2] (first compound 0.08 µM), 0.531; in experiment [2] (first compound 0.253 µM), 0.461. The relative viability in experiment [2] (first compound 0.8 µM) came out at 0.395; in experiment [2] (first compound 2.53 µM), 0.51; in experiment [3] (first compound 0.08 µM), 0.499; in experiment [3] (first compound 0.253 µM) it was 0.477; in experiment [3] (first compound 0.8 µM), 0.538; in experiment [3] (first compound 2.53 µM) it was 0.414. In addition, the relative viability in experiment [4] (first compound 0.08 µM) was 0.845; in experiment [4] (first compound 0.253 µM), 0.763; in experiment [4] (first compound 0.8 µM) it was 0.814; in experiment [4] (first compound 2.53 µM) it was 0.562; in experiment [5] (first compound 0.08 µM) it was 0.616; in experiment [5] (first compound 0.253 µM) it was 0.506. The relative viability in experiment [5] (first compound 0.8 µM) was 0.602; in experiment [5] (first compound 2.53 µM), 0.511.
